Patent US6528251B2, “Method of managing the chemotherapy of patients who are HIV positive based on the phenotypic drug sensitivity of human HIV strains” (Virco N.V., priority 1996, dated 2003)
Read-outs that look alike come from different tables or passages of the source.

Legend:
Type in all cases: cell-based, HIV-1
[1] = system: Recombinant wild type HIV strain recIIIB; test: Antiviral MT4/MTT assay with reference virus recIIIB
[2] = system: recombinant virus from patient viral RNA (Example 5, 3TC resistant HIV strains); test: Recombinant virus assay (MT4/MTT), patient of Example 5 (AZT, then AZT+3TC therapy); details: for ratio (1)/(2): Table 1, patient mean IC50 / recIIIB IC50, Example 5
Method: (§1) RNA was isolated from 100 μl of plasma according to the method described by Boom, R. et al. (1990, supra), and was reverse transcribed with the GeneAmp reverse transcriptase kit (Perkin Elmer) as described by the manufacturer and using an HIV-1 specific downstream primer (OUT3: 5′-CATTGCTCTCCAATTACTGTGATATTTCTCATC-3′; SEQ ID NO: 1). PCR on reverse transcribed RNA was performed with inner and outer primers as described by Kellam, P. and Larder, B. A. (1994, supra). After chloroform extraction and centrifugation on Centricon 100 columns or centrifugation on anion-exchange spin columns (Quiagen), the isolated PCR product was ready for use in the transfection reactions.
(§2) MT4 cells were subcultured at a density of 250,000 cells/ml before transfection (exponential growth phase). Cells were pelleted and resuspended in phosphate buffered saline (PBS) at a concentration of […]. A 0.8 ml portion (2.5 10E6 cells/ml) was used for each transfection. Transfection was performed with the Bio-Rad Gene pulser making use of 0.4 cm electrode cuvettes. Cells were electroporated in the presence of […] of linearised pHIVΔRT plasmid and approximately 5 μg of RT PCR product at 250SF and 300 V, followed by a 30-min incubation at room temperature. Subsequently, 10 ml of fresh culture medium was added to the cell suspension and incubation was performed at 37° C. in a humidified atmosphere of 5% CO2.
(§3) During 7 to 10 days following the transfection, cells were monitored for the appearance of cytopathogenic effect (CPE). In the absence thereof, cells were subcultured in different flasks. Subsequently, culture supernatants of transfected cells were used to create a stock of recombinant virus and stored in 1.5 ml aliquots at −70° C.
(§4) After titration of the new viruses, the stocks were used for antiviral experiments in the presence of serial dilutions of different HIV inhibitors. Titres of the harvested supematants were determined by limited serial dilution titration of virus in MT4 cells.
(§5) Viruses with a useful titre were used in antiviral experiments. For this purpose, 96-well microtitre plates were filled with 100μl of complete culture medium. Subsequently, stock solutions of compounds were added in 25 μl volumes to series of duplicate wells. HIV- and mock-infected cell samples were included for each drug (or drug combination). Exponentially growing MT4 cells were then transferred to the microtitre plates at a density of 150,000 cells/ml. The cell cultures were then incubated at 37° C. in a humidified atmosphere of 5% CO2. Five days after infection, the viability of the mock- and HIV-infected cells was examined spectrophotometrically by the M1T method (Pauwels, R. et al. J. Virol. Meth. (1988), 20: 309-321) as described in Section 6 below.
(§6) To each well of the microtiter plates, 20 μl of a solution of MTT (7.5 mg/ml in PBS) was added. The plates were further incubated at 37° C. for 1 h. Then, 150 μl of medium was removed without disturbing the MT4 cell clusters containing the formazan crystals. Solubilization of the formazan crystals was achieved by adding 100 μl 5% Triton X-100 in acidified isopropanol (5 ml concentrated HCl per liter solvent). Complete dissolution of the formazan crystals was obtained after the plates had been placed on a plate shaker for 10 min. Finally the absorbances were read at two wavelengths (540 and 690 nm). From these optical density (OD) data, 50% inhibitory (IC50) and 50% cytotoxic (CC50) concentrations were derived.
An HIV infected patient who received AZT from December 1989 until an undocumented later date, and switched to a combined chemotherapy of AZT+3TC (1:1) from February 1994 until October 1995 donated plasma whose susceptibility to a number of RT inhibitors was determined according to the above described protocol of Example 1. Recombinant wild type HIV strain recIIIB was used in said protocol as a reference HIV virus.

[3] = system: recombinant virus from patient viral RNA (Example 6, drug-naive patient); test: Recombinant virus assay (MT4/MTT), drug-naive patient of Example 6; details: for IC50: Human immunodeficiency virus 1, Table 2, Example 6 patient virus; for ratio (1)/(2): Table 2, patient mean IC50 / recIIIB IC50, Example 6
Method: as §1, §2, §3, §4, §5, §6
A drug-naive HIV infected patient donated plasma whose susceptibility to a number of RT inhibitors was determined according to the above described protocol of Example 1. Recombinant wild type HIV strain recIIIB was used in said protocol as a reference HIV virus.

[4] = system: recombinant virus from patient viral RNA (Example 7, drug-naive patient); test: Recombinant virus assay (MT4/MTT), drug-naive patient of Example 7; details: for IC50: Human immunodeficiency virus 1, Table 3, Example 7 patient virus; for ratio (1)/(2): Table 3, patient mean IC50 / recIIIB IC50, Example 7
Method: as §1, §2, §3, §4, §5, §6
A drug-naive HIV-infected patient donated plasma whose susceptibility to a number of RT inhibitors was determined according to the protocol set out in Example 1. Recombinant wild type HIV strain recIIIB was used as a reference HIV virus.

[5] = system: recombinant virus from patient viral RNA (Example 8); test: Recombinant virus assay (MT4/MTT), patient of Example 8 (therapy history AZT, 3TC and loviride); details: for IC50: Human immunodeficiency virus 1, Table 4, Example 8 patient virus; for ratio (1)/(2): Table 4, patient mean IC50 / recIIIB IC50, Example 8
Method: as §1, §2, §3, §4, §5, §6
An HIV-infected patient with a therapy history including AZT, 3TC and loviride donated plasma whose susceptibility to a number of RT inhibitors was determined according to the protocol set out in Example 1. Recombinant wild type HIV strain recIIIB was used as a reference HIV virus.

[6] = system: recombinant virus from patient viral RNA (Example 9); test: Recombinant virus assay (MT4/MTT), patient of Example 9 (multiple nucleoside analogue RT-inhibitors); details: for IC50: Human immunodeficiency virus 1, Table 5, Example 9 patient virus; for ratio (1)/(2): Table 5, patient mean IC50 / recIIIB IC50, Example 9
Method: as §1, §2, §3, §4, §5, §6
An HIV-infected patient with a therapy history including multiple nucleoside analogue RT-inhibitors donated plasma whose susceptibility to a number of RT inhibitors was determined according to the protocol set out in Example 1. Recombinant wild type HIV strain recIIIB was used as a reference HIV virus.

[7] = Human immunodeficiency virus 1, Table 2, reference run of Example 6, read-out: Anti-HIV-1 activity IC50 (μM) recIIIB ref (2)
[8] = Human immunodeficiency virus 1, Table 3, reference run of Example 7, read-out: Anti-HIV-1 activity IC50 (μM) recIIIB ref (2)
[9] = Human immunodeficiency virus 1, Table 4, reference run of Example 8, read-out: Anti-HIV-1 activity IC50 (μM) recIIIB ref (2)
[10] = Human immunodeficiency virus 1, Table 5, reference run of Example 9, read-out: Anti-HIV-1 activity IC50 (μM) recIIIB ref (2)
[11] = MT4 cells, read-out: Anti-HIV-1 activity IC50 (μM) Exp. 1
[12] = MT4 cells, read-out: Anti-HIV-1 activity IC50 (μM) Exp. 2
[13] = mean of Exp. 1 and 2, read-out: Anti-HIV-1 activity IC50 (μM) Mean (1)
[14] = mean, read-out: Anti-HIV-1 activity IC50 (μM) Mean (1)

| Structure (SMILES) | IC50 [1, 7] [µM] | IC50 [1, 8] [µM] | IC50 [1, 9] [µM] | IC50 [1, 10] [µM] | ratio (1)/(2) [2] | IC50 [3, 11] [µM] | IC50 [3, 12] [µM] | IC50 [3, 13] [µM] | ratio (1)/(2) [3] | IC50 [4, 11] [µM] | IC50 [4, 14] [µM] | ratio (1)/(2) [4] | IC50 [5, 11] [µM] | IC50 [5, 12] [µM] | IC50 [5, 14] [µM] | ratio (1)/(2) [5] | IC50 [6, 11] [µM] | IC50 [6, 12] [µM] | IC50 [6, 14] [µM] | ratio (1)/(2) [6] | also measured |
| --- | --- | --- | --- | --- | --- | --- | --- | --- | --- | --- | --- | --- | --- | --- | --- | --- | --- | --- | --- | --- | --- |
| Cc1cn([C@H]2C=C[C@@H](CO)O2)c(=O)[nH]c1=O [d4T, stavudine] | 1.74 | 1.37 | 5.46 | 12 | 0.5 | 1.31 | 0.97 | 1.14 | 1 | 1.14 | 1.4 | 1 | 7.5 | 7.1 | 7.3 | 1 | > 100 | > 100 | > 100 | >8 | IC50 ([1]; Human immunodeficiency virus 1, read-out: Anti-HIV-1 activity IC50 (μM) recIIIB ref (2), Table 1, reference run of Example 5): 0.12 µM; IC50 ([2]; Human immunodeficiency virus 1, MT4, read-out: Anti-HIV-1 activity IC50 (μM) Exp. 1): 0.07 µM; IC50 ([2]; Human immunodeficiency virus 1, MT4, read-out: Anti-HIV-1 activity IC50 (μM) Exp. 2): 0.49 µM; IC50 ([2]; Human immunodeficiency virus 1, read-out: Anti-HIV-1 activity IC50 (μM) Mean (1)): 0.06 µM; IC50 [4, 12]: 1.66 µM |
| Nc1ccn([C@@H]2CS[C@H](CO)O2)c(=O)n1 [3TC, lamivudine] | 3.08 | 1.38 | 6.3 | 16.7 | 118 | 1.81 | 2.02 | 1.91 | 1 | 2.17 | 2.17 | 2 | > 100 | > 100 | > 100 | >16 | > 100 | > 100 | > 100 | >6 | IC50 ([1]; Human immunodeficiency virus 1, Table 1, reference run of Example 5, read-out: Anti-HIV-1 activity IC50 (μM) recIIIB ref (2)): 0.56 µM; IC50 ([1]; Human immunodeficiency virus 1, Table 6, reference run of Example 10, read-out: Anti-HIV-1 activity IC50 (μM) recIIIB ref (2)): 4.61 µM; IC50 ([1]; Human immunodeficiency virus 1, read-out: Anti-HIV-1 activity IC50 (μM) recIIIB ref (2), Table 7, reference run of Example 11): 5.18 µM; IC50 ([1]; Human immunodeficiency virus 1, read-out: Anti-HIV-1 activity IC50 (μM) recIIIB ref (2), Table 8, reference run of Example 12): 4.61 µM; IC50 ([2]; Human immunodeficiency virus 1, Table 1, Example 5 patient virus, MT4 cells, read-out: Anti-HIV-1 activity IC50 (μM) Exp. 1): 31.6 µM; IC50 ([2]; Human immunodeficiency virus 1, Table 1, Example 5 patient virus, MT4 cells, read-out: Anti-HIV-1 activity IC50 (μM) Exp. 2): 100 µM; IC50 ([2]; Human immunodeficiency virus 1, Table 1, Example 5 patient virus, mean of Exp. 1 and 2, read-out: Anti-HIV-1 activity IC50 (μM) Mean (1)): 65.8 µM |
